{
  "source": "ChEMBL document CHEMBL5505960",
  "about": "“Synthesis and evaluation of butylphthalide-scutellarein hybrids as multifunctional agents for the treatment of Alzheimer's disease” (Eur J Med Chem, 2024)",
  "key": {"[1]": {"molecular_target": "Amyloid-beta precursor protein (Homo sapiens) (UniProt P05067)", "sequence (P05067 whole entry)": "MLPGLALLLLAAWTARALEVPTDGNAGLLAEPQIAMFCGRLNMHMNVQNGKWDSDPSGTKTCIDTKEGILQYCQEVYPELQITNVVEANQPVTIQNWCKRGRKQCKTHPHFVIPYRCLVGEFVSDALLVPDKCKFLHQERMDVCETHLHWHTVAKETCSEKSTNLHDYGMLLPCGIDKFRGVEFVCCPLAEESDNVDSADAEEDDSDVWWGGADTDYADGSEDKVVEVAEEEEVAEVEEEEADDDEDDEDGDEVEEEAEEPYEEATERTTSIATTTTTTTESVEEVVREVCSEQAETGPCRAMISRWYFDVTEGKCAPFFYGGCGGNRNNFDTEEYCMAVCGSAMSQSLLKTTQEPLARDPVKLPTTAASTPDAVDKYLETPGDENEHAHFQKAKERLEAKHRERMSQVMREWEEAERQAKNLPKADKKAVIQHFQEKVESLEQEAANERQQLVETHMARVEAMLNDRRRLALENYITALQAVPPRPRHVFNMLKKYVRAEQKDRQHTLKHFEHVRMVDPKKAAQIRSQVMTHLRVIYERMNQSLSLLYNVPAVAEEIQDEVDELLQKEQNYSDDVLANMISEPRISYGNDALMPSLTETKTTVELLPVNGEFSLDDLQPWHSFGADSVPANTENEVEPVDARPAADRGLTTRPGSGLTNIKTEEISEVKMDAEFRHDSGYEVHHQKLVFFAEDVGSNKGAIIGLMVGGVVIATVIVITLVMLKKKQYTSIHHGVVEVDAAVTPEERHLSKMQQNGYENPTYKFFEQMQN", "assay": "Inhibition of amyloid beta (1 to 42) (unknown origin) fibrillation assessed as reversal of A-beta 1-42 induced morphological changes at 25 uM measured after 24 hrs by TEM analysis"}, "[2]": {"assay": "Metal chelating activity assessed as compound-Cu2+ complex formation by measuring hyperchromic shift in the presence of CuCl2 by UV-Visible spectrophotometric analysis"}, "PC-12 [3]": {"tested_on": "PC-12", "assay": "Cytotoxicity against rat PC12 cells at 25 uM measured after 24 hrs by MTT assay", "assay_type": "functional, cell-based"}, "HT-22 [4]": {"tested_on": "HT-22", "assay": "Neuroprotective activity against amyloid beta (1 to 42)-induced injury in mouse HT-22 cells assessed as increase in cell viability at 2.5 uM incubated for 24 hrs by MTT assay relative to control", "assay_type": "functional"}, "BV-2 [5]": {"tested_on": "BV-2", "assay": "Antineuroinflammatory activity in LPS-induced mouse BV-2 cells assessed as inhibition of ROS production at 10 uM preincubated for 30 mins followed by LPS stimulation and measured after 8 hrs by DCFH-DA staining based analysis", "assay_type": "functional, cell-based", "conditions": "time 8.5 hrs"}, "BV-2 [6]": {"tested_on": "BV-2", "assay": "Antineuroinflammatory activity in LPS-induced mouse BV-2 cells assessed as inhibition of TNF-alpha release at 2.5 uM preincubated for 30 mins followed by LPS stimulation and measured after 24 hrs relative to control", "assay_type": "functional", "set-up": "scale not given: the % may be the effect or the level left", "conditions": "time 24.5 hrs"}, "[7]": {"assay": "Metal chelating activity assessed as compound-Cu2+ complex formation by measuring bathochromic shift at 301 to 345nm in the presence of CuCl2 by UV-Visible spectrophotometric analysis"}, "[8]": {"molecular_target": "Amyloid-beta precursor protein (Homo sapiens) (UniProt P05067)", "assay": "Disaggregation of self-induced amyloid beta (1 to 42) (unknown origin) fibrils at 25 uM by ThT fluorescence assay relative to control"}, "Mus musculus [9]": {"tested_on": "Mus musculus", "assay": "Neuroprotective activity in Sodium nitrite induced cognition impairement in C57BL/6 mouse model assessed as reduction in number of error time at 1.1 to 9.9 mg/kg, IG administered daily for 7 days", "assay_type": "functional, organism-based", "conditions": "dose 1.1-9.9 mg/kg, time 7.0 day"}, "[10]": {"assay": "Tmax in Balb/C mouse plasma at 30 mg/kg, IG measured upto 8 hrs by LC-MS analysis", "assay_type": "ADME, organism-based", "conditions": "po"}, "Mus musculus [11]": {"tested_on": "Mus musculus", "assay": "Neuroprotective activity in Sodium nitrite induced cognition impairement in C57BL/6 mouse model assessed as decrease in MAD level at 9.9 mg/kg, IG administered daily for 7 days", "assay_type": "functional", "conditions": "time 7 day"}, "[12]": {"assay": "Cmax in Balb/C mouse brain at 30 mg/kg, IG measured upto 8 hrs by LC-MS analysis", "assay_type": "ADME, organism-based", "conditions": "po"}, "[13]": {"molecular_target": "Amyloid-beta precursor protein (Homo sapiens) (UniProt P05067)", "assay": "Inhibition of amyloid beta (1 to 42) (unknown origin) fibrillation assessed as reduction in Cu2+ induced thick fibrils at 25 uM measured after 24 hrs by TEM analysis"}, "[14]": {"assay": "Ratio of AUC (0 to t) in Balb/C mouse brain at 30 mg/kg, IG measured upto 8 hrs by LC-MS analysis", "assay_type": "ADME, organism-based", "conditions": "po"}, "[15]": {"molecular_target": "Amyloid-beta precursor protein (Homo sapiens) (UniProt P05067)", "assay": "Inhibition of amyloid beta (1 to 42) (unknown origin) self induced aggregation at 25 uM by ThT fluorescence assay relative to control"}, "[16]": {"assay": "AUC (0 to t) in Balb/C mouse brain at 30 mg/kg, IG measured upto 8 hrs by LC-MS analysis", "assay_type": "ADME, organism-based", "conditions": "in vivo, po"}, "[17]": {"assay": "Metal chelating activity assessed as compound-Zn2+ complex formation by measuring hyperchromic shift in the presence of ZnCl2 by UV-Visible spectrophotometric analysis"}, "Mus musculus [18]": {"tested_on": "Mus musculus", "assay": "Neuroprotective activity in Sodium nitrite induced cognition impairement in C57BL/6 mouse model assessed as decrease in MAD activity at 5.0 mg/kg, IG administered daily for 7 days", "assay_type": "functional, organism-based", "conditions": "time 7.0 day"}, "[19]": {"assay": "Metal chelating activity assessed as compound-Fe2+ complex formation by measuring hyperchromic shift in the presence of FeSO4 by UV-Visible spectrophotometric analysis"}, "Mus musculus [20]": {"tested_on": "Mus musculus", "assay": "Neuroprotective activity in Sodium nitrite induced cognition impairement in C57BL/6 mouse model assessed as increase in SOD activity at 9.9 mg/kg, IG administered daily for 7 days", "assay_type": "functional", "conditions": "time 7 day"}, "HT-22 [21]": {"tested_on": "HT-22", "assay": "Neuroprotective activity against amyloid beta (1 to 42)-induced injury in mouse HT-22 cells assessed as increase in cell viability at 10 uM incubated for 24 hrs by MTT assay relative to control", "assay_type": "functional"}, "HT-22 [22]": {"tested_on": "HT-22", "assay": "Neuroprotective activity against amyloid beta (1 to 42)-induced cell injury in mouse HT-22 cells assessed as reversal of reduction in cell numbers at 2.5 to 10 uM measured after 24 hrs by MTT assay", "assay_type": "functional, cell-based", "conditions": "dose 2.5-10 µM"}, "BV-2 [23]": {"tested_on": "BV-2", "assay": "Antineuroinflammatory activity in LPS-induced mouse BV-2 cells assessed as inhibition of IL-1 beta release at 2.5 uM preincubated for 30 mins followed by LPS stimulation and measured after 24 hrs relative to control", "assay_type": "functional", "set-up": "scale not given: the % may be the effect or the level left", "conditions": "time 24.5 hrs"}, "PC-12 [24]": {"tested_on": "PC-12", "assay": "Neuroprotective activity against H2O2 induced rat PC12 cells assessed as increase in cell viability at 1 uM measured after 24 hrs by MTT assay relative to control", "assay_type": "functional"}, "[25]": {"molecular_target": "Amyloid-beta precursor protein (Homo sapiens) (UniProt P05067)", "assay": "Inhibition of amyloid beta (1 to 42) (unknown origin) fibrillation assessed as short amyloid beta fibrils at 25 uM measured after 24 hrs by TEM analysis"}, "BV-2 [26]": {"tested_on": "BV-2", "assay": "Antineuroinflammatory activity in LPS-induced mouse BV-2 cells assessed as inhibition of TNF-alpha release at 10 uM preincubated for 30 mins followed by LPS stimulation and measured after 24 hrs relative to control", "assay_type": "functional", "set-up": "scale not given: the % may be the effect or the level left", "conditions": "time 24.5 hrs"}, "Mus musculus [27]": {"tested_on": "Mus musculus", "assay": "Neuroprotective activity in Sodium nitrite induced cognition impairement in C57BL/6 mouse model assessed as decrease in MAD level administered daily as IG for 7 days", "assay_type": "functional, organism-based", "conditions": "dose 1.1-9.9 mg/kg, time 7.0 day"}, "HT-22 [28]": {"tested_on": "HT-22", "assay": "Neuroprotective activity against amyloid beta (1 to 42)-induced injury in mouse HT-22 cells assessed as inhibition of ROS accumulation measured after 24 hrs by DCFH-DA staining based fluorescence microscopy analysis", "assay_type": "functional, cell-based", "conditions": "dose 2.5-10 µM"}, "[29]": {"assay": "Antioxidant activity assessed as trolox equivalent of ORAC radical scavenging activity by ORAC-FL assay relative to trolox", "assay_type": "functional"}},
  "note": "Activity calls are given as the source filed them. The rule behind the calls is not given here.",
  "data": [
    {"smiles": "CCCCCC1OC(=O)c2c1cc(OC)c(O)c2O", "note": "(centres undefined)", "values": [
      {"measurement": "inhibition", "setting": "[1]", "value": "Active"},
      {"measurement": "Activity", "setting": "[2]", "value": "Active"},
      {"measurement": "Activity", "setting": "PC-12 [3]", "value": "inactive"},
      {"measurement": "Activity", "setting": "HT-22 [4]", "value": 76.3, "unit": "%"},
      {"measurement": "Activity", "setting": "BV-2 [5]", "value": "Active"},
      {"measurement": "Activity", "setting": "BV-2 [6]", "value": 40.1, "unit": "%"},
      {"measurement": "Activity", "setting": "[7]", "value": "Active"},
      {"measurement": "Activity", "setting": "[8]", "value": 42.5, "unit": "%"},
      {"measurement": "Activity", "setting": "Mus musculus [9]", "value": "Active"},
      {"measurement": "Tmax", "setting": "[10]", "value": 15, "unit": "min"},
      {"measurement": "Activity", "setting": "Mus musculus [11]", "value": 2.8, "unit": "nmol/mg"},
      {"measurement": "Cmax", "setting": "[12]", "value": 337, "unit": "ng/mL"},
      {"measurement": "inhibition", "setting": "[13]", "value": "Active"},
      {"measurement": "Kp at 8 h", "setting": "[14]", "value": 0.8},
      {"measurement": "inhibition", "setting": "[15]", "value": 90.2, "unit": "%"},
      {"measurement": "AUCt", "setting": "[16]", "value": 681.3, "unit": "ng·h/g"},
      {"measurement": "Activity", "setting": "[17]", "value": "Active"},
      {"measurement": "Activity", "setting": "Mus musculus [18]", "value": "inactive"},
      {"measurement": "Activity", "setting": "[19]", "value": "Active"},
      {"measurement": "Activity", "setting": "Mus musculus [20]", "value": 193.1, "unit": "U/mg"},
      {"measurement": "Activity", "setting": "HT-22 [21]", "value": 89.2, "unit": "%"},
      {"measurement": "Activity", "setting": "HT-22 [22]", "value": "Active"},
      {"measurement": "Activity", "setting": "BV-2 [23]", "value": 49.2, "unit": "%"},
      {"measurement": "Activity", "setting": "PC-12 [24]", "value": 68.1, "unit": "%"},
      {"measurement": "inhibition", "setting": "[25]", "value": "Active"},
      {"measurement": "Activity", "setting": "BV-2 [26]", "value": 75.8, "unit": "%"},
      {"measurement": "Activity", "setting": "Mus musculus [27]", "value": "Dose-Dependent Effect"},
      {"measurement": "Activity", "setting": "HT-22 [28]", "value": "Dose-Dependent Effect"},
      {"measurement": "Activity", "setting": "[29]", "value": 2.2}
    ]}
  ]
}
